Test results as given in patent US10351519B2, “Sulfamate derivative compounds, processes for preparing them and their uses” (BIO-PHARM SOLUTIONS CO., LTD., priority 2016, dated 2019).

Key:
Type in all cases: in vivo
SD rats = test: Anti-epilepsy activity, scPTZ test, rat; details: for ED50: Rattus norvegicus, ip
Description: In this experiment, each test compound sample was formulated as described in Biological Experimental Example I, and administered intraperitoneally to the test animals (mice; ICR or Rat; SD); Experimental animals, male ICR mice and male SD rats, were purchased from OrientBio or Nara biotech, Korea, and housed 4-5 mice per a cage for 4-5 days. The range of mice body weight was used between 19 and 26 grams and range of rats body weight was used between 100 and 130 grams. After Peak time (0.5, 1, 2 and 4 hr) from the administration, PTZ (Pentylenetetrazol) was administered subcutaneously in the concentration capable of inducing 97% intermittent convulsions (mice: 76-110 mg/kg·bw, 10 μl/g, or rats: 79-110 mg/kg·bw, 2 μl/g). If clonic seizure was not observed for at least 30 minutes in the PTZ administered animal, it can be considered that the test compound has anti-epilepsy activity. The median effective dose (ED50) is determined using 6 animals per a concentration (total three different concen-trations), and calculated by Litchfield and Wicoxon log-probit method which is a dose-response relationship.

Sprague-Dawley rats [1] = test: Antiallodynic activity on Chung model (SNL, spinal nerve ligation); details: orally; for ED50: Rattus norvegicus, po, at peak time
ICR mice = test: Anti-epilepsy activity, MES test, mouse; details: for ED50: po
In short: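 Maximal electroshock delivered through corneal electrodes at 60 Hz for 0.2 s: 50 mA for male ICR mice (19–25 g), 150 mA for male SD rats (100–130 g). Compounds given orally in 30% PEG 400 or 20% Tween 80 in saline, tested at peak time, three doses per compound. ED50 for seizure protection derived by Litchfield–Wilcoxon log-probit analysis.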

Sprague-Dawley rats [2] = test: Lithium-pilocarpine induced epilepsy test, prevention; details: for ED50: Rattus norvegicus, ip, read-out: Lithium pilocarpine model (pre) ED50; for Lithium pilocarpine model (pre) peak time: i.p.
Protocol: Male Sprague-Dawley rats (purchased from Orient Bio Inc. Korea) of body weight 175-200 grams were used for these studies and 3 rats per cage were housed for 4-5 days. On the day prior to SE, rats received 127 mg/kg lithium chloride (Sigma, St. Louis, Mo., U.S.A.) intraperitoneally (i.p.). Approximately 18-20 h following this treatment, rats were given an i.p. injection of CD97 dose (30-43 mg/kg) pilocarpine (Sigma). An i.p. injection of 2 mg/kg methyl-scopolamine (Sigma) was administered 30 min prior to pilocarpine to block the effects of the muscarinic agonist on peripheral cholinergic receptors. Test drugs were dissolved in 30% PEG 400 or 20% tween80 (Sigma).
The drugs were administered intraperitoneally (i.p.) in a volume of 2 ul/g body weight. Pharmacological effects of all of the test materials were evaluated to compare test groups (n=6) with a control group (n=6). Control group was administered vehicle only. The efficacy was measured 0.5, 1, 2, or 4 hours after the administration of the test material. The time point that the most animals were protected was defined as peak time and the ED50 was determined at peak time. The animals were then transferred to observation cages and observed continuously for 90 min. Seizure was elicited in approximately 95% of the control group. Protection was defined as complete absence of seizure grade 3-5 (Racine scale; Racine, 1972) over the 90-min observation period. The effective dose of the compound necessary to protect 50% of the animals against seizures compared to controls (i.e. ED50) was determined by a curve fitting program (Excel 2007, Microsoft).

Compound	scPTZ test (ip) Peak time (SD rats)	scPTZ test (ip) efficacy % (SD rats; 40 mg/kg)	SNL Peak Time (Sprague-Dawley rats [1])	SNL efficacy % (Sprague-Dawley rats [1]; 30 mg/kg)	MES test (po) Peak time (ICR mice)	ED50 (ICR mice)	ED50 (SD rats)	ED50 (Sprague-Dawley rats [1])	ED50 (Sprague-Dawley rats [2])	Lithium pilocarpine model (pre) peak time (Sprague-Dawley rats [2])
C[C@@H](OS(N)(=O)=O)[C@H](O)c1ccccc1Cl [Example 2, (1R, 2R)-1-(2-chlorophenyl)-1-hydroxypropan-2-yl sulfamate]	1 h	33.3%	1 h	30(38.6%)	2 h	22.8 mg/kg				
COCO[C@H](c1ccccc1Cl)[C@@H](C)OS(N)(=O)=O [Example 70, (1R, 2R)-1-(2-chlorophenyl)-1-(methoxymethoxy)propan-2-yl sulfamate]	(1 h)		1 h		2 h	50.5 mg/kg	36 mg/kg	6.5 mg/kg	100 mg/kg	(0.5 h)
C[C@@H](OS(N)(=O)=O)[C@H](O)c1c(Cl)cccc1Cl [Example 8, (1R, 2R)-1-(2,6-dichlorophenyl)-1-hydroxypropan-2-yl sulfamate]	(1 h)		1 h		2 h	27.9 mg/kg	15.3 mg/kg	35.3 mg/kg	29.3 mg/kg	(2 h)
C[C@H](OS(N)(=O)=O)[C@@H](O)c1c(Cl)cccc1Cl [Example 7, (1S, 2S)-1-(2,6-dichlorophenyl)-1-hydroxypropan-2-yl sulfamate]	(0.5 h)		0.5 h		1 h	40.7 mg/kg	10 mg/kg	4.4 mg/kg	23.3 mg/kg	(0.5 h)
